From ChEMBL document CHEMBL3822442, “Synthesis and Pharmacological Characterization of Novel Glucagon-like Peptide-2 (GLP-2) Analogues with Low Systemic Clearance” (J Med Chem, 2016)
pEC50: −log10 of the molar value. Activity calls are given as the source filed them. No cut-off for these calls is given here.

Columns and labels:
[1] = target: Glucagon-like peptide 1 receptor (Homo sapiens, UniProt P43220); experiment: Agonist activity at human GLP1R expressed in HEK293 cells after 5 hrs by luciferase reporter gene assay; assay type: cell-based
[2] = Systemic clearance in Sprague-Dawley rat at 0.2 mg/kg, iv through cassette dosing measured up to 300 mins by LC/MS/MS analysis; assay type: ADME, organism-based; settings: in vivo
[3] = target: T1, Glucagon-like peptide 2 receptor (Homo sapiens, UniProt O95838); experiment: Agonist activity at human GLP2R expressed in HEK293 cells after 5 hrs by luciferase reporter gene assay; assay type: cell-based
T1 sequence (O95838 whole entry): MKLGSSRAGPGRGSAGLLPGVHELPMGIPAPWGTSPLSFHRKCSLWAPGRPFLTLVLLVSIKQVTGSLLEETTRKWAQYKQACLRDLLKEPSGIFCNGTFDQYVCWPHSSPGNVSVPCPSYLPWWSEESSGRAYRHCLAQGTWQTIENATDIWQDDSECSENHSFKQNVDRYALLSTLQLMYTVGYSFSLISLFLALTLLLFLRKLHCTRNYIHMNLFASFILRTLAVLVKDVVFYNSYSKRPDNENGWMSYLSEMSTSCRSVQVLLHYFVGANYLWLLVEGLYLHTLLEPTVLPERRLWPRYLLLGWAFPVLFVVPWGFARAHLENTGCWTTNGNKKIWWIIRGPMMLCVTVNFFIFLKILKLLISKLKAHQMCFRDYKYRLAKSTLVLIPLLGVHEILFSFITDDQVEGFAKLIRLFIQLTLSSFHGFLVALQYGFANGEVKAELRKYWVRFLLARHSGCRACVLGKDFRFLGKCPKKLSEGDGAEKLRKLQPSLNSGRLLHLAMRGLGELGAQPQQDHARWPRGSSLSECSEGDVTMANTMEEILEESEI

HEK293 = experiment: Selectivity ratio of EC50 for human GLP1R expressed in HEK293 cells to EC50 for human GLP2R expressed in HEK293; assay type: cell-based
[4] = target: Glucagon receptor (Homo sapiens) (UniProt P47871); experiment: Agonist activity at human GCGR expressed in HEK293 cells after 5 hrs by luciferase reporter gene assay; assay type: cell-based
Glucagon receptor (Homo sapiens), sequence (P47871 whole entry): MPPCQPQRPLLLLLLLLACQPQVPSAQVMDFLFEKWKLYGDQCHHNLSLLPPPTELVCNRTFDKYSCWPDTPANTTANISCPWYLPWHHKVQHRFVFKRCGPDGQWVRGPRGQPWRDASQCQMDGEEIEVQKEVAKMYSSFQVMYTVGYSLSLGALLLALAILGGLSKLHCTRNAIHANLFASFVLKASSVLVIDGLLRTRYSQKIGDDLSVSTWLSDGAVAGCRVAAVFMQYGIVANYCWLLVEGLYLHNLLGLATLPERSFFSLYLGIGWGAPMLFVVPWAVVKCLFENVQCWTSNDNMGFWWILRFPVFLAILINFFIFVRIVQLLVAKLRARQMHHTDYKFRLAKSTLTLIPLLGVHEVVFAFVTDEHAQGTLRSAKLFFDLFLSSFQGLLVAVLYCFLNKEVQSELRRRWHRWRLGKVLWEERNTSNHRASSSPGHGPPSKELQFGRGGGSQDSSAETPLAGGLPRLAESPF

Glucagon-like peptide 1 receptor, sequence (P43220 whole entry): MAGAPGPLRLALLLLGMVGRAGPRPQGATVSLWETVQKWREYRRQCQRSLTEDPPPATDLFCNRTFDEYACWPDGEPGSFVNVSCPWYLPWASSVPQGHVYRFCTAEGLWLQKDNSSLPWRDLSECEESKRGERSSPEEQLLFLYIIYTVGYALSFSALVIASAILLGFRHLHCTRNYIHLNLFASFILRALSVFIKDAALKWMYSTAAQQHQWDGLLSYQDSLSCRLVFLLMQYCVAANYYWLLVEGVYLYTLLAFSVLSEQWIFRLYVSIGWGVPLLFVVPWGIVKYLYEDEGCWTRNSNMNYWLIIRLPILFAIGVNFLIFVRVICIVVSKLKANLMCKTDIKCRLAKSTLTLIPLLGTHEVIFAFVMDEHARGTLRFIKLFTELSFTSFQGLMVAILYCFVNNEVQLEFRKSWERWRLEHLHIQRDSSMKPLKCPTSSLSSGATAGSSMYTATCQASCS

Row | SMILES | Ratio EC50 (HEK293) | other results
1 | CCCC[C@H](NC(=O)[C@H](CCC(=O)O)NC(=O)[C@H](CC(=O)O)NC(=O)[C@H](CO)NC(=O)[C@H](Cc1ccccc1)NC(=O)[C@H](CO)NC(=O)CNC(=O)[C@H](CC(=O)O)NC(=O)CNC(=O)[C@@H](N)Cc1cnc[nH]1)C(=O)N[C@@H](CC(N)=O)C(=O)N[C@H](C(=O)N[C@H](C(=O)N[C@@H](CC(C)C)C(=O)N[C@@H](CC(=O)O)C(=O)N[C@@H](Cc1ccc(Cl)cc1)C(=O)N[C@@H](CC(C)C)C(=O)N[C@@H](C)C(=O)N[C@@H](C)C(=O)N[C@@H](CCCNC(=N)N)C(=O)N[C@@H](CC(=O)O)C(=O)N[C@@H](Cc1ccccc1)C(=O)N[C@H](C(=O)N[C@@H](CC(N)=O)C(=O)N[C@@H](Cc1c[nH]c2ccccc12)C(=O)N[C@@H](CC(C)C)C(=O)N[C@H](C(=O)N[C@@H](CCC(N)=O)C(=O)N[C@H](C(=O)N[C@@H](CCCCN)C(N)=O)[C@@H](C)O)[C@@H](C)CC)[C@@H](C)CC)[C@@H](C)CC)[C@@H](C)O | – | pEC50 [1]: < 6.00; clearance [2]: 0.67 mL/min/kg; pEC50 [3]: 9.66
2 | CCCCC(NC(=O)[C@H](CCC(=O)O)NC(=O)[C@H](CC(=O)O)NC(=O)[C@H](CO)NC(=O)[C@H](Cc1ccccc1)NC(=O)[C@H](CO)NC(=O)CNC(=O)[C@H](CC(=O)O)NC(=O)CNC(=O)[C@@H](N)Cc1cnc[nH]1)C(=O)N[C@H](Cc1ccccc1)C(=O)N[C@H](C(=O)N[C@H](C(=O)N[C@@H](CC(C)C)C(=O)N[C@@H](CC(=O)O)C(=O)N[C@@H](CC(C)C)C(=O)N[C@@H](CC(C)C)C(=O)N[C@@H](C)C(=O)N[C@@H](C)C(=O)N[C@@H](CCCNC(=N)N)C(=O)N[C@@H](CC(=O)O)C(=O)N[C@@H](Cc1ccccc1)C(=O)N[C@H](C(=O)N[C@@H](CC(N)=O)C(=O)N[C@@H](Cc1c[nH]c2ccccc12)C(=O)N[C@@H](CC(C)C)C(=O)N[C@H](C(=O)N[C@@H](CCC(N)=O)C(=O)N[C@H](C(=O)N[C@@H](CCCCN)C(N)=O)[C@@H](C)O)[C@@H](C)CC)[C@@H](C)CC)[C@@H](C)CC)[C@@H](C)O (some centres not stated) | > 12000 | –
3 | CCCCC(NC(=O)[C@H](CCC(=O)O)NC(=O)[C@H](CC(=O)O)NC(=O)[C@H](CO)NC(=O)[C@H](Cc1ccccc1)NC(=O)[C@H](CO)NC(=O)CNC(=O)[C@H](CC(=O)O)NC(=O)CNC(=O)[C@@H](N)Cc1cnc[nH]1)C(=O)N[C@H](Cc1ccccc1)C(=O)N[C@H](C(=O)N[C@H](C(=O)N[C@@H](CC(C)C)C(=O)N[C@@H](CC(=O)O)C(=O)N[C@@H](CC(C)C)C(=O)N[C@@H](CC(C)C)C(=O)N[C@@H](C)C(=O)N[C@@H](C)C(=O)N[C@@H](CCCNC(=N)N)C(=O)N[C@@H](CC(=O)O)C(=O)N[C@@H](Cc1ccccc1)C(=O)N[C@H](C(=O)N[C@@H](CC(N)=O)C(=O)N[C@@H](Cc1c[nH]c2ccccc12)C(=O)N[C@@H](CC(C)C)C(=O)N[C@H](C(=O)N[C@@H](CCC(N)=O)C(=O)N[C@H](C(=O)N[C@@H](CCCCN)C(=O)N[C@H](C(=O)N[C@H](C(=O)N[C@@H](CC(=O)O)C(N)=O)[C@@H](C)O)[C@@H](C)CC)[C@@H](C)O)[C@@H](C)CC)[C@@H](C)CC)[C@@H](C)CC)[C@@H](C)O (some centres not stated) | > 33000 | –
4 | CCCCC(NC(=O)[C@H](CCC(=O)O)NC(=O)[C@H](CC(=O)O)NC(=O)[C@H](CO)NC(=O)[C@H](Cc1ccccc1)NC(=O)[C@H](CO)NC(=O)CNC(=O)[C@H](CC(=O)O)NC(=O)CNC(=O)[C@@H](N)Cc1cnc[nH]1)C(=O)N[C@H](Cc1ccccc1)C(=O)N[C@H](C(=O)N[C@H](C(=O)N[C@@H](CC(C)C)C(=O)N[C@@H](CC(=O)O)C(=O)N[C@@H](CC(C)C)C(=O)N[C@@H](CC(C)C)C(=O)N[C@@H](C)C(=O)N[C@@H](C)C(=O)N[C@@H](CCCNC(=N)N)C(=O)N[C@@H](CC(=O)O)C(=O)N[C@@H](Cc1ccccc1)C(=O)N[C@H](C(=O)N[C@@H](CC(N)=O)C(=O)N[C@@H](Cc1c[nH]c2ccccc12)C(=O)N[C@@H](CC(C)C)C(=O)N[C@H](C(=O)N[C@@H](CCC(N)=O)C(=O)N[C@H](C(=O)N[C@@H](CCCCN)C(=O)N[C@H](C(=O)N[C@H](C(=O)N[C@@H](CC(=O)O)C(=O)NCCOCCOCCOCCOCCC(N)=O)[C@@H](C)O)[C@@H](C)CC)[C@@H](C)O)[C@@H](C)CC)[C@@H](C)CC)[C@@H](C)CC)[C@@H](C)O (some centres not stated) | > 33000 | –
5 | CCCCC(NC(=O)[C@H](CCC(=O)O)NC(=O)[C@H](CC(=O)O)NC(=O)[C@H](CO)NC(=O)[C@H](Cc1ccccc1)NC(=O)[C@H](CO)NC(=O)CNC(=O)[C@H](CC(=O)O)NC(=O)CNC(=O)[C@@H](N)Cc1cnc[nH]1)C(=O)N[C@H](Cc1ccccc1)C(=O)N[C@H](C(=O)N[C@H](C(=O)N[C@@H](CC(C)C)C(=O)N[C@@H](CC(=O)O)C(=O)N[C@@H](CC(C)C)C(=O)N[C@@H](CC(C)C)C(=O)N[C@@H](C)C(=O)N[C@@H](C)C(=O)N[C@@H](CCCNC(=N)N)C(=O)N[C@@H](CC(=O)O)C(=O)N[C@@H](Cc1ccccc1)C(=O)N[C@H](C(=O)N[C@@H](CC(N)=O)C(=O)N[C@@H](Cc1c[nH]c2ccccc12)C(=O)N[C@@H](CC(C)C)C(=O)N[C@H](C(=O)N[C@@H](CCC(N)=O)C(=O)N[C@H](C(=O)N[C@@H](CCCCN)C(=O)N[C@H](C(=O)N[C@H](C(=O)N[C@@H](CC(=O)O)C(=O)NCC)[C@@H](C)O)[C@@H](C)CC)[C@@H](C)O)[C@@H](C)CC)[C@@H](C)CC)[C@@H](C)CC)[C@@H](C)O (some centres not stated) | > 20000 | –
6 | CCCCC(NC(=O)[C@H](CCC(=O)O)NC(=O)[C@H](CC(=O)O)NC(=O)[C@H](CO)NC(=O)[C@H](Cc1ccccc1)NC(=O)[C@H](CO)NC(=O)CNC(=O)[C@H](CC(=O)O)NC(=O)CNC(=O)[C@@H](N)Cc1cnc[nH]1)C(=O)N[C@H](Cc1ccccc1)C(=O)N[C@H](C(=O)N[C@H](C(=O)N[C@@H](CC(C)C)C(=O)N[C@@H](CC(=O)O)C(=O)N[C@@H](CC(C)C)C(=O)N[C@@H](CC(C)C)C(=O)N[C@@H](C)C(=O)N[C@@H](C)C(=O)N[C@@H](CCCNC(=N)N)C(=O)N[C@@H](CC(=O)O)C(=O)N[C@@H](Cc1ccccc1)C(=O)N[C@H](C(=O)N[C@@H](CC(N)=O)C(=O)N[C@@H](Cc1c[nH]c2ccccc12)C(=O)N[C@@H](CC(C)C)C(=O)N[C@H](C(=O)N[C@@H](CCC(N)=O)C(=O)N[C@H](C(=O)N[C@@H](CCCCN)C(=O)N[C@H](C(=O)N[C@H](C(=O)N[C@@H](CC(=O)O)C(=O)O)[C@@H](C)O)[C@@H](C)CC)[C@@H](C)O)[C@@H](C)CC)[C@@H](C)CC)[C@@H](C)CC)[C@@H](C)O (some centres not stated) | > 33000 | –
7 | CCCCC(NC(=O)[C@H](CCC(=O)O)NC(=O)[C@H](CC(=O)O)NC(=O)[C@H](CO)NC(=O)[C@H](Cc1ccccc1)NC(=O)[C@H](CO)NC(=O)CNC(=O)[C@H](CC(=O)O)NC(=O)CNC(=O)[C@@H](N)Cc1cnc[nH]1)C(=O)N[C@H](CC(C)C)C(=O)N[C@H](C(=O)N[C@H](C(=O)N[C@@H](CC(C)C)C(=O)N[C@@H](CC(=O)O)C(=O)N[C@@H](CC(N)=O)C(=O)N[C@@H](CC(C)C)C(=O)N[C@@H](C)C(=O)N[C@@H](C)C(=O)N[C@@H](CCCNC(=N)N)C(=O)N[C@@H](CC(=O)O)C(=O)N[C@@H](Cc1ccccc1)C(=O)N[C@H](C(=O)N[C@@H](CC(N)=O)C(=O)N[C@@H](Cc1c[nH]c2ccccc12)C(=O)N[C@@H](CC(C)C)C(=O)N[C@H](C(=O)N[C@@H](CCC(N)=O)C(=O)N[C@H](C(=O)N[C@@H](CCCCN)C(N)=O)[C@@H](C)O)[C@@H](C)CC)[C@@H](C)CC)[C@@H](C)CC)[C@@H](C)O (some centres not stated) | – | Activity [4]: inactive
8 | CCCC[C@H](NC(=O)[C@H](CCC(=O)O)NC(=O)[C@H](CC(=O)O)NC(=O)[C@H](CO)NC(=O)[C@H](Cc1ccccc1)NC(=O)[C@H](CO)NC(=O)CNC(=O)[C@H](CC(=O)O)NC(=O)CNC(=O)[C@@H](N)Cc1c[nH]cn1)C(=O)N[C@@H](CC(N)=O)C(=O)N[C@H](C(=O)N[C@H](C(=O)N[C@@H](CC(C)C)C(=O)N[C@@H](CC(=O)O)C(=O)N[C@@H](Cc1ccc2ccccc2c1)C(=O)N[C@@H](CC(C)C)C(=O)N[C@@H](C)C(=O)N[C@@H](C)C(=O)N[C@@H](CCCNC(=N)N)C(=O)N[C@@H](CC(=O)O)C(=O)N[C@@H](Cc1ccccc1)C(=O)N[C@H](C(=O)N[C@@H](CC(N)=O)C(=O)N[C@@H](Cc1c[nH]c2ccccc12)C(=O)N[C@@H](CC(C)C)C(=O)N[C@H](C(=O)N[C@@H](CCC(N)=O)C(=O)N[C@H](C(=O)N[C@@H](CCCCN)C(N)=O)[C@@H](C)O)[C@@H](C)CC)[C@@H](C)CC)[C@@H](C)CC)[C@@H](C)O | – | pEC50 [1]: < 6.00; pEC50 [3]: 9.89
9 | CCCCC(NC(=O)[C@H](CCC(=O)O)NC(=O)[C@H](CC(=O)O)NC(=O)[C@H](CO)NC(=O)[C@H](Cc1ccccc1)NC(=O)[C@H](CO)NC(=O)CNC(=O)[C@H](CC(=O)O)NC(=O)CNC(=O)[C@@H](N)Cc1cnc[nH]1)C(=O)N[C@H](Cc1cccs1)C(=O)N[C@H](C(=O)N[C@H](C(=O)N[C@@H](CC(C)C)C(=O)N[C@@H](CC(=O)O)C(=O)N[C@@H](Cc1ccccc1)C(=O)N[C@@H](CC(C)C)C(=O)N[C@@H](C)C(=O)N[C@@H](C)C(=O)N[C@@H](CCCNC(=N)N)C(=O)N[C@@H](CC(=O)O)C(=O)N[C@@H](Cc1ccccc1)C(=O)N[C@H](C(=O)N[C@@H](CC(N)=O)C(=O)N[C@@H](Cc1c[nH]c2ccccc12)C(=O)N[C@@H](CC(C)C)C(=O)N[C@H](C(=O)N[C@@H](CCC(N)=O)C(=O)N[C@H](C(=O)N[C@@H](CCCCN)C(N)=O)[C@@H](C)O)[C@@H](C)CC)[C@@H](C)CC)[C@@H](C)CC)[C@@H](C)O (some centres not stated) | > 12000 | –
